The values that follow come from patent publication EP3628672A1 (priority 2018, dated 2020).

For test [1], the target named is T1, purified LasB protein from P. aeruginosa (Pseudomonas aeruginosa, UniProt P14756).
T1 construct: purchased Merck or Charles River Laboratories
The test can be described thus: Fluorometric assay to determine Ki (Abz-Ala-Gly-Leu-Ala-p-Nitro-Benzyl-Amide substrate). Format: biochemical. The method in brief: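 Purified P. aeruginosa LasB (10–140 ng/ml) with 250 µM Abz-Ala-Gly-Leu-Ala-p-nitrobenzylamide in 50 mM Tris-HCl pH 7.4, 2.5 mM CaCl2, 0.01% Triton X100, 37 °C; hydrolysis fluorescence (Ex 340/Em 415 nm) followed over 30 min, inhibitor 0.0016–200 µM. Ki = IC50/(1+[S]/Km), Km 214 µM.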

Another test has as its target T2, LasB (Pseudomonas aeruginosa, UniProt P14756).
T2 construct: uses as source of enzyme dialysed supernatant from P. aeruginosa PAO1; endogenous in cells; host or cells: P. aeruginosa PAO1 culture supernatant, filtered and dialysed
The test can be described thus: Elastin assay to determine % inhibition (Elastin Congo-Red, dialysed culture supernatant). It is filed as biochemical, P. aeruginosa PAO1. As to conditions: read-out: Elastin hydrolysis % inhibition @ 50 / 25 µM inhibitor concentration. Put shortly:
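Enzyme source was dialysed PAO1 culture supernatant (50 mM Tris-HCl pH 7.4, 2.5 mM CaCl2), mixed with Elastin Congo-Red and 0.01% Triton X-100. Compound was routinely 50 to 1.56 µM, incubated overnight at 37 °C with shaking. Dye release at OD495 gave % inhibition relative to DMSO and no-enzyme controls.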

SMILES strings stand for the structures. Read-outs that look alike come from different tables or passages of the source.

Usually Ki stands for a dissociation constant, usually derived from enzyme kinetics or from competition with a known ligand.

T2 sequence (P14756 198-498): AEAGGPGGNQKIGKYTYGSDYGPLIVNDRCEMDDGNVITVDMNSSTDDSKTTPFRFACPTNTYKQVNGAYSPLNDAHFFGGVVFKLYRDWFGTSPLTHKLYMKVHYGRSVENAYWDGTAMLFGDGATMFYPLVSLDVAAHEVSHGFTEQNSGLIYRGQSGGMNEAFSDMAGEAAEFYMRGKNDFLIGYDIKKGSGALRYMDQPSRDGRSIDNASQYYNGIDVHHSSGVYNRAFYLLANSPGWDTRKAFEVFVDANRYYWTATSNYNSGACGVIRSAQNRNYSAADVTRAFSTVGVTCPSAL
T1 sequence (P14756 198-498): as above

`CC(=O)N1CCN(CCCn2cc(-c3csc(CNC(=O)C4(CC(=O)O)Cc5ccccc5C4)n3)cn2)CC1` [Example 106, 2-[2-[[4-[1-[3-(4-acetylpiperazin-1-yl)propyl]pyrazol-4-yl]thiazol-2-yl]methylcarbamoyl]indan-2-yl]acetic acid] had a Ki in test [1] of 50 to 200 nM. In addition, at LasB, the inhibition at 25 µM fell in the range of 60 to 75%.
On the same counts, the results for `CN1CCN(CCCn2cc(-c3csc(CNC(=O)C4(CC(=O)O)Cc5ccccc5C4)n3)cn2)CC1` [Example 108, 2-[2-[[4-[1-[3-(4-methylpiperazin-1-yl)propyl]pyrazol-4-yl]thiazol-2-yl]methylcarbamoyl]indan-2-yl]acetic acid] are 50 to 200 nM and 60 to 75%.
On to `O=C(O)CC1(C(=O)NCc2nc(-c3cnn(CCCN4CCCOCC4)c3)cs2)Cc2ccccc2C1` [Example 109, 2-[2-[[4-[1-[3-(1,4-oxazepan-4-yl)propyl]pyrazol-4-yl]thiazol-2-yl]methylcarbamoyl]indan-2-yl]acetic acid], for which the Ki in test [1] is 50 to 200 nM. Besides, the inhibition at 25 µM at LasB lay in the range of 60 to 75%.
For `COC1CCN(CCCn2cc(-c3csc(CNC(=O)C4(CC(=O)O)Cc5ccccc5C4)n3)cn2)CC1` [Example 110, 2-[2-[[4-[1-[3-(4-methoxy-1-piperidyl)propyl]pyrazol-4-yl]thiazol-2-yl]methylcarbamoyl]indan-2-yl]acetic acid], in that order: 50 to 200 nM and 60 to 75%.
In test [1], `CN1CCN(C(=O)N2CCN(CCCn3cc(-c4csc(CNC(=O)C5(CC(=O)O)Cc6ccccc6C5)n4)cn3)CC2)CC1` [Example 112, 2-[2-[[4-[1-[3-[4-(4-methylpiperazine-1-carbonyl)piperazin-1-yl]propyl]pyrazol-4-yl]thiazol-2-yl]methylcarbamoyl]indan-2-yl]acetic acid] came in with a Ki of 50 to 200 nM. Also, the inhibition at 25 µM at LasB lay in the range of 60 to 75%.
For `CN1CCC(C(=O)N2CCN(CCCn3cc(-c4csc(CNC(=O)C5(CC(=O)O)Cc6ccccc6C5)n4)cn3)CC2)CC1` [Example 114, 2-[2-[[4-[1-[3-[4-(1-methylpiperidine-4-carbonyl)piperazin-1-yl]propyl]pyrazol-4-yl]thiazol-2-yl]methylcarbamoyl]indan-2-yl]acetic acid], in that order: 50 to 200 nM and 60 to 75%.
For `CN1CCN(CCCn2cc(-c3csc(CNC(=O)C4(CC(=O)O)Cc5ccccc5C4)n3)cn2)CC1=O` [Example 116, 2-[2-[[4-[1-[3-(4-methyl-3-oxo-piperazin-1-yl)propyl]pyrazol-4-yl]thiazol-2-yl]methylcarbamoyl]indan-2-yl]acetic acid], in that order: 50 to 200 nM and 60 to 75%.
For `CC(=O)N1CCN(CCn2cc(-c3csc(CNC(=O)C4(CC(=O)O)Cc5ccccc5C4)n3)cn2)CC1` [Example 119, 2-[2-[[4-[1-[2-(4-acetylpiperazin-1-yl)ethyl]pyrazol-4-yl]thiazol-2-yl]methylcarbamoyl]indan-2-yl]acetic acid], in that order: 50 to 200 nM and 60 to 75%.
Regarding `C[n+]1ccc(Cn2cc(-c3csc(CNC(=O)C4(CC(=O)[O-])Cc5ccccc5C4)n3)cn2)cc1` [Example 120, 2-[2-[[4-[1-[(1-methylpyridin-1-ium-4-yl)methyl]pyrazol-4-yl]thiazol-2-yl]methylcarbamoyl]indan-2-yl]acetate], the Ki in test [1] was in the range of 50 to 200 nM. On LasB, the inhibition at 25 µM was 60 to 75%.
`COc1ccc(-c2csc(CNC(=O)C3(CC(=O)O)Cc4ccccc4C3)n2)cc1S(=O)(=O)N1CCC(N(C)C)CC1` [Example 121, 2-[2-[[4-[3-[[4-(dimethylamino)-1-piperidyl]sulfonyl]-4-methoxy-phenyl]thiazol-2-yl]methylcarbamoyl]indan-2-yl]acetic acid] came in with a Ki in test [1] of 50 to 200 nM. The inhibition at 25 µM on LasB fell in the range of 60 to 75%.
As to `COc1ccc(-c2csc(CNC(=O)C3(CC(=O)O)Cc4ccccc4C3)n2)cc1S(=O)(=O)N1CCN(C)CC1` [Example 122], in test [1] (Ki calculated from IC50, [S] = 250 µM, Km = 214 µM, 37°C, pH 7.4), the Ki is 50 to 200 nM. Besides, the inhibition at 25 µM at LasB is over 75%.
The compound `COc1ccc(-c2csc(CNC(=O)C3(CC(=O)O)Cc4cc(F)c(F)cc4C3)n2)cc1S(=O)(=O)N1CCC(N(C)C)CC1` [Example 123, 2-[2-[[4-[3-[[4-(dimethylamino)-1-piperidyl]sulfonyl]-4-methoxy-phenyl]thiazol-2-yl]methylcarbamoyl]-5,6-difluoro-indan-2-yl]acetic acid] returned a Ki in test [1] of under 50 nM. Besides, the inhibition at 25 µM on LasB is 60 to 75%.
On the same counts, the results for `COc1ccc(-c2csc(CNC(=O)C3(CC(=O)[O-])Cc4cc(F)c(F)cc4C3)n2)cc1S(=O)(=O)N1CCC([N+](C)(C)C)CC1` [Example 124, 2-[5,6-difluoro-2-[[4-[4-methoxy-3-[[4-(trimethylammonio)-1-piperidyl]sulfonyl]phenyl]thiazol-2-yl]methylcarbamoyl]indan-2-yl] acetate] are 50 to 200 nM and 60 to 75%.
`COc1ccc(S(=O)(=O)N2CCC(N(C)C)CC2)cc1-c1csc(CNC(=O)C2(CC(=O)O)Cc3cc(F)c(F)cc3C2)n1` [Example 125, 2-[2-[[4-[5-[[4-(dimethylamino)-1-piperidyl]sulfonyl]-2-methoxy-phenyl]thiazol-2-yl]methylcarbamoyl]-5,6-difluoro-indan-2-yl]acetic acid] gave a Ki in test [1] of 50 to 200 nM. Besides, the inhibition at 25 µM at LasB fell in the range of 10 to 60%.
For `COc1ccc(S(=O)(=O)N2CCC([N+](C)(C)C)CC2)cc1-c1csc(CNC(=O)C2(CC(=O)[O-])Cc3cc(F)c(F)cc3C2)n1` [Example 126, 2-[5,6-difluoro-2-[[4-[2-methoxy-5-[[4-(trimethylammonio)-1-piperidyl]sulfonyl]phenyl]thiazol-2-yl]methylcarbamoyl]indan-2-yl]acetate], in that order: 50 to 200 nM and 60 to 75%.
Regarding `CN1CCN(S(=O)(=O)c2cccc(-c3csc(CNC(=O)C4(CC(=O)O)Cc5ccccc5C4)n3)c2)CC1` [Example 127, 2-[2-[[4-[3-(4-methylpiperazin-1-yl)sulfonylphenyl]thiazol-2-yl]methylcarbamoyl]indan-2-yl]acetic acid], the Ki in test [1] was in the range of 50 to 200 nM. In addition, the inhibition at 25 µM at LasB is over 75%.
On the same counts, the results for `C[N+]1(C)CCN(S(=O)(=O)c2cccc(-c3csc(CNC(=O)C4(CC(=O)[O-])Cc5ccccc5C4)n3)c2)CC1` [Example 128, 2-[2-[[4-[3-(4,4-dimethylpiperazin-4-ium-1-yl)sulfonylphenyl]thiazol-2-yl]methylcarbamoyl]indan-2-yl]acetate] are 200 to 10000 nM and 10 to 60%.
For `CN(C)CCNS(=O)(=O)c1cccc(-c2csc(CNC(=O)C3(CC(=O)O)Cc4ccccc4C3)n2)c1` [Example 129, 2-[2-[[4-[3-[2-(dimethylamino)ethylsulfamoyl]phenyl]thiazol-2-yl]methylcarbamoyl]indan-2-yl]acetic acid], in that order: 200 to 10000 nM and 60 to 75%.
On the same counts, the results for `CN1CCN(S(=O)(=O)c2ccc(-c3csc(CNC(=O)C4(CC(=O)O)Cc5ccccc5C4)n3)cc2)CC1` [Example 130, 2-[2-[[4-[4-(4-methylpiperazin-1-yl)sulfonylphenyl]thiazol-2-yl]methylcarbamoyl]indan-2-yl]acetic acid] are 50 to 200 nM and 60 to 75%.
In test [1], `CN1CCN(S(=O)(=O)c2cc(-c3csc(CNC(=O)C4(CC(=O)O)Cc5ccccc5C4)n3)ccc2OCCN2CCOCC2)CC1` [Example 132, 2-[2-[[4-[3-(4-methylpiperazin-1-yl)sulfonyl-4-(2-morpholinoethoxy)phenyl]thiazol-2-yl]methylcarbamoyl]indan-2-yl]acetic acid] returned a Ki of under 50 nM. The inhibition at 25 µM at LasB is over 75%.
For `CN1CCN(S(=O)(=O)c2cc(-c3csc(CNC(=O)C4(CC(=O)O)Cc5ccccc5C4)n3)ccc2OCCCN2CCOCC2)CC1` [Example 133, 2-[2-[[4-[3-(4-methylpiperazin-1-yl)sulfonyl-4-(3-morpholinopropoxy)phenyl]thiazol-2-yl]methylcarbamoyl]indan-2-yl]acetic acid], in that order: under 50 nM and 60 to 75%.
In test [1], `CN(C)C1CCN(S(=O)(=O)c2cc(-c3csc(CNC(=O)C4(CC(=O)O)Cc5cc(F)c(F)cc5C4)n3)ccc2OCCN2CCOCC2)CC1` [Example 134, 2-[2-[[4-[3-[[4-(dimethylamino)-1-piperidyl]sulfonyl]-4-(2-morpholinoethoxy)phenyl]thiazol-2-yl]methylcarbamoyl]-5,6-difluoro-indan-2-yl]acetic acid] displayed a Ki of 50 to 200 nM. Also, the inhibition at 25 µM on LasB fell in the range of 60 to 75%.
For `CS(=O)(=O)c1cc(-c2csc(CNC(=O)C3(CC(=O)O)Cc4ccccc4C3)n2)ccc1OCCN1CCOCC1` [Example 135, 2-[2-[[4-[3-methylsulfonyl-4-(2-morpholinoethoxy)phenyl]thiazol-2-yl]methylcarbamoyl]indan-2-yl]acetic acid], in that order: under 50 nM and over 75%.
For `C[N+]1(CCOc2ccc(-c3csc(CNC(=O)C4(CC(=O)[O-])Cc5ccccc5C4)n3)cc2S(C)(=O)=O)CCOCC1` [Example 136, 2-[2-[[4-[4-[2-(4-methylmorpholin-4-ium-4-yl)ethoxy]-3-methylsulfonyl-phenyl]thiazol-2-yl]methylcarbamoyl]indan-2-yl]acetate], in that order: 50 to 200 nM and 60 to 75%.
